Test results reported in article PMC6332188, “Synthesis, Antiviral Bioactivity of Novel 4-Thioquinazoline Derivatives Containing Chalcone Moiety” (Molecules, 2015).

The compounds below were run against T1, TMV CP (tobacco mosaic virus coat protein) (Tobacco mosaic virus (vulgare), UniProt P69687) (assay: microscale thermophoresis).
T1 construct: labelled with Monolith NT Protein Labeling Kit Red
Format: binding
Excerpt: microscale thermophoresis on TMV CP (tobacco mosaic virus coat protein)

T1 sequence (P69687 2-159 limits assumed): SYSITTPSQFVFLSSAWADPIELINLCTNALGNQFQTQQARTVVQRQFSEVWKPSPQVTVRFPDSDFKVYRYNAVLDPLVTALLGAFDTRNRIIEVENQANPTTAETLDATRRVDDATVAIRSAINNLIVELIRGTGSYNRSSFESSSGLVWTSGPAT

`NC(=O)c1ncn([C@@H]2O[C@H](CO)[C@@H](O)[C@H]2O)n1` [Ribavirin] was tested. Which Kd did it give?
The Kd was 511 ± 33.1 µM.

With `O=C(/C=C/c1ccc(Cl)cc1)c1ccc(OCCSc2ncnc3ccccc23)cc1` [M15] as the compound, how does the Kd read?
The Kd was 346 ± 23.9 µM.

Which Kd does the source give for `COc1ccc(/C=C/C(=O)c2ccc(OCCSc3ncnc4ccccc34)cc2)cc1OC` [M6, (E)-3-(3,4-Dimethoxyphenyl)-1-(4-(2-(quinazolin-4-ylthio)ethoxy)phenyl)prop-2-en-1-one] here?
The Kd was 31.1 ± 1.83 µM.
